{
  "source": "paper PMC5788574",
  "about": "(The Journal of comparative neurology, 2017)",
  "key": {"hα2β2 nAChR": {"target": "hα2β2 nAChR (Homo sapiens, UniProt P17787+Q15822)", "sequence (Q15822 27-529)": "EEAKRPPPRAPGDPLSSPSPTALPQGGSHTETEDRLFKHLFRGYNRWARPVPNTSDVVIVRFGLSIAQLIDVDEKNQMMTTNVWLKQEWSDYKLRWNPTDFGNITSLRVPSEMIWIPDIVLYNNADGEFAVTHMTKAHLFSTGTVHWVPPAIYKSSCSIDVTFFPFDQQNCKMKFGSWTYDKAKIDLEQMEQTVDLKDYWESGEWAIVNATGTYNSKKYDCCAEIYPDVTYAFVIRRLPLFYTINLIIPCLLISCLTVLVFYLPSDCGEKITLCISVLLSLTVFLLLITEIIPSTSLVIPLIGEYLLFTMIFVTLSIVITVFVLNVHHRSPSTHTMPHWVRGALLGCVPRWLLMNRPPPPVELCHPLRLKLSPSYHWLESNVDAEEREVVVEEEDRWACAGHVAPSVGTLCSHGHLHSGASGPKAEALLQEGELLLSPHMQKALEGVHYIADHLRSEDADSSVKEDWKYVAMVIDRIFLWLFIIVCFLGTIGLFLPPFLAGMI", "sequence (P17787 26-502)": "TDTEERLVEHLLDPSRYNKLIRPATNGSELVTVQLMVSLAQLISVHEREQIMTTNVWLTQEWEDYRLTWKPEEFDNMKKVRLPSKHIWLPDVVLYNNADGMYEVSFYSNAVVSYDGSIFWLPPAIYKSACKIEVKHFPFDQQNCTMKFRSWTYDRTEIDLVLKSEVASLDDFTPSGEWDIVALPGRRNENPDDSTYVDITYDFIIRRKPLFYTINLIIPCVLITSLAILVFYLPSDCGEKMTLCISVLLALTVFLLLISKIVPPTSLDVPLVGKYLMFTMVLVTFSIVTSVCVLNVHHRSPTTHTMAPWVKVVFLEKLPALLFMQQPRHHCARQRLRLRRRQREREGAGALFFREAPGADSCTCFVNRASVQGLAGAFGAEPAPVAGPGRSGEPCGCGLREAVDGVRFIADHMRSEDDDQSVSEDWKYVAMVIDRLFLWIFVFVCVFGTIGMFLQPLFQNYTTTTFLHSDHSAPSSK", "experiment": "biochemical", "format": "binding"}, "nAChR α2β4": {"target": "nAChR α2β4 (Homo sapiens, UniProt P30926+Q15822)", "sequence (Q15822 27-529)": "as the sequence (Q15822 27-529) above", "sequence (P30926 22-498)": "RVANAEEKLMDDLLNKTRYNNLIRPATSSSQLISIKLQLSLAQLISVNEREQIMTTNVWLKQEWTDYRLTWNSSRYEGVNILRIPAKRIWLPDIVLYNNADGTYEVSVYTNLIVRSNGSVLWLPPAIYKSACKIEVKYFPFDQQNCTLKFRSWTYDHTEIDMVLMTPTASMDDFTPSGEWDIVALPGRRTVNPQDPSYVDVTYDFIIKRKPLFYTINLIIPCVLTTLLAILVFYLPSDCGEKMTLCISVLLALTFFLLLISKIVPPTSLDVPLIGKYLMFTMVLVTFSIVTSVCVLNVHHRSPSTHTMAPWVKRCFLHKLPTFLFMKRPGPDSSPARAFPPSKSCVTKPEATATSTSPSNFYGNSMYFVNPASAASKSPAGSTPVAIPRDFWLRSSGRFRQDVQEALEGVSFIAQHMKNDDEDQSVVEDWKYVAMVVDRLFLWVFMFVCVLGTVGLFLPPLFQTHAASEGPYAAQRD", "experiment": "biochemical", "format": "binding"}, "hβ4 nAChR subtypes": {"target": "hβ4 nAChR subtypes", "format": "binding, human", "details": "read-out: Affinity for hβ4 nAChR subtypes; range over α4β4, α3β4, α2β4"}, "hα4β2 nAChR": {"target": "hα4β2 nAChR (Homo sapiens, UniProt P17787+P43681)", "sequence (P17787 26-502)": "as the sequence (P17787 26-502) above", "sequence (P43681 27-627)": "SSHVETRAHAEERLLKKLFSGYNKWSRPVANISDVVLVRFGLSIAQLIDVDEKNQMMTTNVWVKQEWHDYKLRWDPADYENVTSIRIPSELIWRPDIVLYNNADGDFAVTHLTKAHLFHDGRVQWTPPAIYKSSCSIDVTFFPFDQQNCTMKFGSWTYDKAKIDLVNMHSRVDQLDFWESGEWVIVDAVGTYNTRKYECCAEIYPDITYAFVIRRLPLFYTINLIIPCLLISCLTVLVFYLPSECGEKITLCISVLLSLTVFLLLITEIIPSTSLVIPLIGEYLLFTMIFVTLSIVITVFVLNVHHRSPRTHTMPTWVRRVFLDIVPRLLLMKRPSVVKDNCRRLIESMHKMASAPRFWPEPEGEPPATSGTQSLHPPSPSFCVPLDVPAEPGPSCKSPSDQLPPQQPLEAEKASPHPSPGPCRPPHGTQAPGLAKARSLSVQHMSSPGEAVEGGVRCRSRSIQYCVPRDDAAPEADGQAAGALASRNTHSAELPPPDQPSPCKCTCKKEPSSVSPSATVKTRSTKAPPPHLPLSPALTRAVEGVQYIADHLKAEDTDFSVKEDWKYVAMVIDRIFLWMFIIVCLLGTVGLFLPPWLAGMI", "format": "binding", "details": "read-out: Ki α4β2; human cloned receptors, 3H-epibatidine"}, "hα3β2 nAChR": {"target": "hα3β2 nAChR (Homo sapiens, UniProt P17787+P32297)", "sequence (P17787 26-502)": "as the sequence (P17787 26-502) above", "sequence (P32297 32-505)": "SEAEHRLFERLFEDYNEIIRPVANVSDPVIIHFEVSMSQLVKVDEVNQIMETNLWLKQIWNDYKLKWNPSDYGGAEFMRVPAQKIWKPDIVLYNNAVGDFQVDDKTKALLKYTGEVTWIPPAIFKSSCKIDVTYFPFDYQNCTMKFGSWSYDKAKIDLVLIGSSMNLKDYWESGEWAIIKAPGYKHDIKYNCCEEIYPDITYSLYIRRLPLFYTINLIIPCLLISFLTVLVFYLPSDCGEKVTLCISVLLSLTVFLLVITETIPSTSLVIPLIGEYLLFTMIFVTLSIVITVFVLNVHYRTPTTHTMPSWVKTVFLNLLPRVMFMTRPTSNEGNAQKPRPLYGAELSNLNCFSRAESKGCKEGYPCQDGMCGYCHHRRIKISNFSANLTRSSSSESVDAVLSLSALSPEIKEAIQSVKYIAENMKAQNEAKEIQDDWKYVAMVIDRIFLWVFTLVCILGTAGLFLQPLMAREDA", "format": "binding"}, "nAChR α4β4": {"target": "nAChR α4β4 (Homo sapiens, UniProt P30926+P43681)", "sequence (P43681 29-627)": "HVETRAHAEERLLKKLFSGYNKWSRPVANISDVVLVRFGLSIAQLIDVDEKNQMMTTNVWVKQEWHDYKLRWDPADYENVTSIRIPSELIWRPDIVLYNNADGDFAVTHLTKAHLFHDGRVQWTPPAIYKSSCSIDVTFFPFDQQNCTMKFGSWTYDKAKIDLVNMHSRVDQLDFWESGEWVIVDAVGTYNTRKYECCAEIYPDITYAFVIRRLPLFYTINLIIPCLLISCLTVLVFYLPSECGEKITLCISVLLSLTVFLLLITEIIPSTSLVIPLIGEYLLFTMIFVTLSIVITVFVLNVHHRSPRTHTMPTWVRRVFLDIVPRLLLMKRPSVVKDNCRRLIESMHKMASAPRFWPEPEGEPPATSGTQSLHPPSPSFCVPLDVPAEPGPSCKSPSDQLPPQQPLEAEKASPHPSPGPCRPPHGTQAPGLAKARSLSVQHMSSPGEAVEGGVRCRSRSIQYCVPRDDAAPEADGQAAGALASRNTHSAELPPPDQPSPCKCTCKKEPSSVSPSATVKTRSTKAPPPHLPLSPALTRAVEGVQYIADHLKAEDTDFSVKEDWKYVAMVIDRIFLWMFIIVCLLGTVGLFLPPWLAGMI", "sequence (P30926 22-498)": "as the sequence (P30926 22-498) above", "format": "binding"}, "nAChR α3β4": {"target": "nAChR α3β4 (Homo sapiens, UniProt P30926+P32297)", "sequence (P32297 32-505)": "as the sequence (P32297 32-505) above", "sequence (P30926 22-498)": "as the sequence (P30926 22-498) above", "format": "binding"}, "α7 nAChR": {"target": "α7 nAChR (Rattus norvegicus, UniProt Q05941)", "sequence (Q05941 23-502)": "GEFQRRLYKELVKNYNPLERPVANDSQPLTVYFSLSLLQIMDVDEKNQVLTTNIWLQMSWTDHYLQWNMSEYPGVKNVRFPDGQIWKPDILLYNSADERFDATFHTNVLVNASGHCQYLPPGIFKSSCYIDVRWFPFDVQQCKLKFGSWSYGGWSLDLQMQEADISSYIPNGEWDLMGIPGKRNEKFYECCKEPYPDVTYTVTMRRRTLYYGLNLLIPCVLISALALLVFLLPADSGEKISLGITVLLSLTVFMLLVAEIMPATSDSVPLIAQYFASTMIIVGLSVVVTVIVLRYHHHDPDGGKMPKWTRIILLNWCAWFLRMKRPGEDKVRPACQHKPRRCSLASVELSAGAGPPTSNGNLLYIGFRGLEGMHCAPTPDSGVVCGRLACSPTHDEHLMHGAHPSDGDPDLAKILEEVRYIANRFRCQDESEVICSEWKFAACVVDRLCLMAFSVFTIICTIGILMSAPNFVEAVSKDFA", "format": "binding", "details": "read-out: Ki α7; rat cloned receptors labeled with 125I-α-bungarotoxin"}, "[1]": {"system": "all other receptor subtypes tested", "experiment": "PDSP screen of other receptor subtypes at 10 μM", "format": "binding, human", "details": "significant inhibition >50%"}, "human α4β2 nAChR": {"system": "human α4β2 nAChR", "experiment": "[86Rb+]rubidium efflux functional assay, YXα4β2H1 cells", "format": "cell-based", "details": "for As Antagonist, α4β2 nAChR, inhibition of nicotine-stimulated 86Rb+ efflux: vs 100 μM nicotine"}, "human α3β4 nAChR": {"system": "human α3β4 nAChR", "experiment": "[86Rb+]rubidium efflux functional assay, YXα3β4H1 cells", "format": "cell-based", "details": "for As Antagonist, α3β4 nAChR, inhibition of nicotine-stimulated 86Rb+ efflux: vs 100 μM nicotine"}, "[2]": {"experiment": "Expanded acute toxicity study, intravenous, rats", "format": "in vivo, Sprague-Dawley rats"}, "[3]": {"details": "ref Kimes et al., 2003; cited from earlier work"}, "[4]": {"details": "[α4β2 affinity/other receptor affinity]×100, human α4β2 affinities"}, "[5]": {"details": "100 μM, 100 μM nicotine as 100%"}},
  "note": "Where two headings read alike, the source gives them in different places.",
  "data": [
    {"smiles": "CN1CCC[C@H]1c1cccnc1", "note": "[Nicotine, reference compound]", "values": [
      {"measurement": "Ki", "setting": "hα2β2 nAChR", "value": 0.00364, "unit": "µM"},
      {"measurement": "Ki", "setting": "nAChR α2β4", "value": 0.0827, "unit": "µM"},
      {"measurement": "Ki", "setting": "hβ4 nAChR subtypes", "value": "0.027 to 0.219", "unit": "µM"}
    ]},
    {"smiles": "Fc1ncccc1OC[C@@H]1C=CCN1", "note": "[Nifene]", "values": [
      {"measurement": "Ki", "setting": "hα4β2 nAChR", "value": 0.00083, "unit": "µM"},
      {"measurement": "% human α4β2 Selectivity, α3β2", "setting": "hα3β2 nAChR; [4]", "value": 104, "unit": "%"},
      {"measurement": "Ki", "setting": "hα3β2 nAChR; read-out: Ki α3β2, human cloned receptors, 3H-epibatidine", "value": 0.0008, "unit": "µM"},
      {"measurement": "Fold higher affinity for α2β2 compared to α3β2 and α4β2 subtypes", "setting": "hα2β2 nAChR", "value": "approximately 5 fold"},
      {"measurement": "% human α4β2 Selectivity, α2β2", "setting": "hα2β2 nAChR; [4]", "value": 244, "unit": "%"},
      {"measurement": "Ki", "setting": "hα2β2 nAChR; read-out: Ki α2β2, human cloned receptors, 3H-epibatidine", "value": 0.00034, "unit": "µM"},
      {"measurement": "% human α4β2 Selectivity, α4β4", "setting": "nAChR α4β4; [4]", "value": 3.05, "unit": "%"},
      {"measurement": "Ki", "setting": "nAChR α4β4; read-out: Ki α4β4, human cloned receptors, 3H-epibatidine", "value": 0.0272, "unit": "µM"},
      {"measurement": "% human α4β2 Selectivity, α3β4", "setting": "nAChR α3β4; [4]", "value": 0.44, "unit": "%"},
      {"measurement": "Ki", "setting": "nAChR α3β4; read-out: Ki α3β4, human cloned receptors, 3H-epibatidine", "value": 0.19, "unit": "µM"},
      {"measurement": "% human α4β2 Selectivity, α2β4", "setting": "nAChR α2β4; [4]", "value": 1.58, "unit": "%"},
      {"measurement": "Ki", "setting": "nAChR α2β4; read-out: Ki α2β4, human cloned receptors, 3H-epibatidine", "value": 0.0524, "unit": "µM"},
      {"measurement": "Ki", "setting": "α7 nAChR", "value": 0.169, "unit": "µM"},
      {"measurement": "Affinity at all other receptor subtypes tested", "setting": "[1]", "value": "did not exhibit significant affinity"},
      {"measurement": "As Antagonist, α4β2 nAChR, inhibition of nicotine-stimulated 86Rb+ efflux", "setting": "human α4β2 nAChR; 1 μM", "value": 18, "unit": "%"},
      {"measurement": "As Antagonist, α4β2 nAChR, inhibition of nicotine-stimulated 86Rb+ efflux", "setting": "human α4β2 nAChR; 10 μM", "value": 21, "unit": "%"},
      {"measurement": "As Agonist, α4β2 nAChR, stimulated 86Rb+ efflux", "setting": "human α4β2 nAChR; [5]", "value": 14, "unit": "%"},
      {"measurement": "As Antagonist, α4β2 nAChR, inhibition of nicotine-stimulated 86Rb+ efflux", "setting": "human α4β2 nAChR; 100 μM", "value": 56, "unit": "%"},
      {"measurement": "As Antagonist, α3β4 nAChR, inhibition of nicotine-stimulated 86Rb+ efflux", "setting": "human α3β4 nAChR; 1 μM", "value": 9, "unit": "%"},
      {"measurement": "As Antagonist, α3β4 nAChR, inhibition of nicotine-stimulated 86Rb+ efflux", "setting": "human α3β4 nAChR; 10 μM", "value": 16, "unit": "%"},
      {"measurement": "As Agonist, α3β4 nAChR, stimulated 86Rb+ efflux", "setting": "human α3β4 nAChR; [5]", "value": 35, "unit": "%"},
      {"measurement": "As Antagonist, α3β4 nAChR, inhibition of nicotine-stimulated 86Rb+ efflux", "setting": "human α3β4 nAChR; 100 μM", "value": 59, "unit": "%"},
      {"measurement": "Tolerability of intravenous injections", "setting": "[2]; Sprague-Dawley male and female rats, 1.6, 20 and 40 μg/kg/day", "value": "well tolerated"},
      {"measurement": "Morbidity or mortality", "setting": "[2]; rats, up to 40 μg/kg/day i.v.", "value": "no morbidity or mortality"},
      {"measurement": "Ki", "setting": "hβ4 nAChR subtypes", "value": "0.027 to 0.219", "unit": "µM"}
    ]},
    {"smiles": "Fc1ncccc1OC[C@@H]1CCN1", "note": "[[^18F]2-FA-85380, 2-fluoro-3-(2(S)-azetidinylmethoxy)pyridine]", "values": [
      {"measurement": "Dose with no adverse effects", "setting": "[3]", "value": "up to 10 pmol/kg"}
    ]}
  ]
}
